Experimental data from patent US12448393B2, “Use of novel compound, for preventing, improving or treating amyotrophic lateral sclerosis” (PRG S&TECH INC., priority 2019, dated 2025).
Read-outs that look alike come from different tables or passages of the source.

Tests used:
[1] = tested on: WT-SOD1; assay: WT-SOD1 aggregation by cellular stress; format: cell-based
[2] = tested on: SOD1; assay: Western blot / native gel analysis of SOD1 aggregation; format: cell-based, human; details: Table 1; effect on SOD1 aggregation, native / non-SDS-PAGE gel
Protocol: Using RIPA buffer (50 mM Tris-Cl, pH 7.5, 150 mM NaCl, 1% NP-40, 0.1% SDS and […]) for SDS-PAGE and lysis buffer (50 mM Tris-Cl, pH 7.5, 150 mM NaCl, 0.3% NP-40) for Native-PAGE, proteins were extracted from cells. Samples were separated by the SDS-PAGE or the Native-PAGE and transferred to PVDF membrane. Blotted membrane was blocked with TBST buffer including 3% skim milk for 1 hour, and reacted with specific antibodies. The reacted antibodies were detected by ECL and X-ray film exposure. Antibodies used in the present disclosure are as follows: pan-SOD1 (GTX100554) was purchased from Genetex (California, USA). Misfolded SOD1-specific antibody (B8H10) was purchased from MediMabs (Montreal, Canada). Actin (sc-1616), GST (sc-138), and GFP (Green fluorescent protein; sc-8036) were purchased from Santa Cruz biotechnology (Santa Cruz, CA, USA). TDP-43 antibody (10782-2-AP) was purchased from Proteintech (Rosemont, IL, USA). Anti-FLAG (Sigma; F3165) was purchased from Sigma Aldrich (St, Louis, Mo, USA), and HRP-conjugated goat anti-mouse, goat anti-rabbit, and mouse anti-goat antibodies (Pierce, Thermo Fisher Scientific, Inc., Rockford, IL, USA) were used as secondary antibodies.
(§1) GFP-SOD1 (WT, G85R, G93A), non-tagged SOD1 (WT, A4V, G37R, G85R, G93A) and tdTomato-TDP43 expression vectors were purchased from Addgene (Cambridge, MA, USA). Transfection was performed using Jet-PEI reagent (JetPEI; Polyplus transfection, New York, NY, USA) according to the manufacturer's protocol. Briefly, vectors were mixed with JetPEI reagent in 150 mM NaCl buffer, and then mixture was reacted for 15 minutes. The mixture was added to cells in serum-free medium and reacted for 4 hours. After reaction, the cells were replaced with a culture medium supplemented with 10% FBS.

[3] = tested on: normal human fibroblasts; assay: Cell viability measurement (MTT), normal fibroblasts; format: cell-based; details: Table 1; cell type not given, neurons (FIG. 9A) and normal fibroblasts (FIG. 9B)
Protocol: HEK293 cells were purchased from American Type Culture Collection (ATCC, Manassas, VA, USA) and maintained at 37° C. and 5% CO2 in DMEM liquid medium including 10% fetal bovine serum and 1% penicillin-streptomycin. SK—N—SH cells were purchased from Korean Cell Line Bank (KCLB, Seoul, South Korea) and maintained in MEM medium including 10% fetal bovine serum, 1% antibiotic, 25 mM HEPES, and 300 mg/L L-Glu. Human fibroblasts (person) were purchased from Coriell Cell Repositories (New Jersey, USA) and maintained in EMEM including 15% FBS, 2 mM Glutamine, and 26 mM HEPES without antibiotics. Thapsigargin (ER calcium scavenger: CAS 67526-95-8) was purchased from Calbiochem (Darmstadt, Germany). CoCl2 (hypoxia-inducer: C8661) was purchased from Sigma Aldrich (St, Louis, Mo, USA).
To check cells viability, the cells were reacted with 0.5 mg/ml MTT solution (475989; Merck, Darmstadt, Germany) at 37° C. for 4 hours. After removing residual solution and washing with PBS, precipitate was dissolved in 200 μl DMSO, and quantified by measuring absorbance at 540 nm.

[4] = tested on: SOD1; assay: Immunofluorescence staining of SOD1 aggregation and misfolded SOD1; format: cell-based, human; details: Table 1; IF staining of SOD1
Protocol: Cells on coverslip were washed with PBS, fixed with 4% PFA at room temperature for 30 minutes, and then infiltrated with 0.1% Triton X-100/PBS for 10 minutes. The cells were treated with blocking solution (anti-Human Antibody 1:500 dilution in PBS) for 1 hour, and then cells were reacted with anti-pan SOD1 (1:400 dilution), misfolded SOD1 (B8H10; 1:200 dilution in blocking solution) at 4° C. overnight. Finally, the cells were reacted with FITC and rhodamine-conjugated secondary antibody at 4° C. for 6 hours. Nuclei were stained with 4,6-diamidino-2-phenylindole (DAPI), and endoplasmic reticula (ERs) were stained with ER-Tracker Red dye for 10 minutes. The cells were washed 3 times with PBS, and then coverslips were mounted with mounting solution [H-5501; Vector Laboratories (Burlingame, CA, USA)] and analyzed by fluorescence microscopy (Zeiss).
as §1

[5] = tested on: WT-SOD1 and mutant SOD1-GST (A4V, G37R, G85R, G93A); assay: ELISA compound screening for binding inhibitor between WT-SOD1 and mutant SOD1; set-up: species or system human; details: Table 1; compounds at final concentration of 50 μM
Protocol: For compound screening, the present inventors applied an ELISA assay system. To select a binding inhibitor between WT-SOD1 and mutant SOD1, the present inventors used 0.5% paraformaldehyde (PFA) to fix WT-SOD1 recombinant protein on a 96-well plate. The plate was dried, washed with phosphate-buffered saline (PBS), and reacted with the compounds at a final concentration of 50 μM, and then mutant SOD1-GST (A4V, G37R, G85R, G93A) proteins were added. After 2 hours of reaction, the 96-well plate was washed with PBS and blocked with 3% skim milk to prevent non specific reaction. The plate was reacted with anti-GST antibody (diluted at 1:10,000) for 1 hour, and then reacted with anti-mouse IgG-HRP (diluted at 1:50,000) for 1 hour. After washing twice, the plate was reacted with a 3,3′,5,5′-tetramethylbenzidine (TMB) solution (Calbiochem) for 30 minutes and a stop solution (1N H2SO4) for 30 minutes. Finally, the present inventors analyzed values using an ELISA reader (450 nm absorbance). Negative control (−; red line) was reacted without mutant SOD1, and positive control (+; blue line) was reacted with mutant SOD1 without the compounds.
To prepare recombinant proteins, human SOD1 (WT, A4V, G37R, G85R, G93A) was added to EcoRI and HindIII sites of pGEX-TEV vector, an improved vector made by adding a TEV protease cleavage site to pGEX-4T1 (Invitrogen). The recombinant proteins were expressed as GST-fusion proteins in Escherichia coli (E. coli) strain BL21 (DE3). The proteins were purified by glutathione-affinity chromatography.

SMILES	SOD1 aggregation under cellular stress agents ([1]; FIG. 1C, 1D, FIG. 2)	SOD1 aggregation under cellular stress agents [1]	Western Blot [2]	Toxicity (MTT) [3]	Immuno-fluorscence [4]	ELISA [5]
C[N+](C)(C)CCO.C[N+](C)(C)CCO.[SH-].[SH-].[S]=[Mo]=[S] [ATN-224]	induced the WT-SOD1 aggregation					
[Cl-].[Cl-].[Co+2] [CoCl2]		SOD1 aggregation and increase of misfolded SOD1				
COc1cc(CCC(=O)O[C@H]2Cc3cc4ccc(=O)oc4cc3OC2(C)C)ccc1O [SNU-C4, (S)-8,8-dimethyl-2-oxo-7,8-dihydro-2H,6H-pyrano[3,2-g]chromen-7-yl 3-(4-hydroxy-3-methoxyphenyl) propanoate]			Effect x	No	Effect x	Effect x
COc1ccc(/C=C/C(=O)O[C@H]2Cc3cc4ccc(=O)oc4cc3OC2(C)C)cc1OC [SNU-C5, (S)-8,8-dimethyl-2-oxo-7,8-dihydro-2H,6H-pyrano[3,2-g]chromen-7-yl (E)-3-(3,4-dimethoxyphenyl) acrylate]			Effect x	No	Effect x	Effect ○
COc1ccc(CCC(=O)O[C@H]2Cc3cc4ccc(=O)oc4cc3OC2(C)C)cc1OC [SNU-C7, (S)-8,8-dimethyl-2-oxo-7,8-dihydro-2H,6H-pyrano[3,2-g]chromen-7-yl 3-(3,4-dimethoxyphenyl) propanoate]			Effect x	No	Effect x	Effect x
CC1(C)Oc2cc3oc(=O)ccc3cc2C[C@@H]1OC(=O)/C=C/c1ccncc1 [SNU-C9, (S)-8,8-dimethyl-2-oxo-7,8-dihydro-2H,6H-pyrano[3,2-g]chromen-7-yl (E)-3-(pyridin-4-yl) acrylate]			Effect ○	No	Effect ○	Effect x
CC1(C)Oc2cc3oc(=O)ccc3cc2C[C@@H]1OC(=O)/C=C/c1cccc(O)c1 [SNU-C10, (S)-8,8-dimethyl-2-oxo-7,8-dihydro-2H,6H-pyrano[3,2-g]chromen-7-yl (E)-3-(3-hydroxyphenyl) acrylate]			Effect ○	No	Effect ○	Effect ○
CC1(C)Oc2cc3oc(=O)ccc3cc2C[C@@H]1OC/C=C/c1ccc(F)cc1 [SNU-C13, (S,E)-7-((3-(4-fluorophenyl)allyl)oxy)-8,8-dimethyl-7,8-dihydro-2H,6H-pyrano[3,2-g]chromen-2-one]			Effect x			
CC(=O)Oc1cccc(/C=C/C(=O)O[C@H]2Cc3cc4ccc(=O)oc4cc3OC2(C)C)c1 [SNU-C14, (S)-8,8-dimethyl-2-oxo-7,8-dihydro-2H,6H-pyrano[3,2-g]chromen-7-yl (E)-3-(3-acetoxyphenyl) acrylate]			Effect ○	No	Effect ○	Effect ○
COc1cc(CCC(=O)O[C@H]2Cc3cc4ccc(=O)oc4cc3OC2(C)C)ccc1OC(C)=O [SNU-C15, (S)-8,8-dimethyl-2-oxo-7,8-dihydro-2H,6H-pyrano[3,2-g]chromen-7-yl 3-(4-acetoxy-3-methoxyphenyl) propanoate]			Effect ○	No	Effect ○	Effect x
COc1cc(/C=C/C(=O)O[C@H]2Cc3cc4ccc(=O)oc4cc3OC2(C)C)ccc1OC(C)=O [SNU-C17, (S)-8,8-dimethyl-2-oxo-7,8-dihydro-2H,6H-pyrano[3,2-g]chromen-7-yl (E)-3-(4-acetoxy-3-methoxyphenyl) acrylate]			Effect ○		Effect ○	
CC1(C)Oc2cc3oc(=O)ccc3cc2C[C@@H]1OC(=O)/C=C/c1ccc(F)c(F)c1 [SNU-C18, (S)-8,8-dimethyl-2-oxo-7,8-dihydro-2H,6H-pyrano[3,2-g]chromen-7-yl (E)-3-(3,4-difluorophenyl) acrylate]			Effect ○	Toxic	Effect ○	
c1ccc(CN(CCN(Cc2ccccn2)Cc2ccccn2)Cc2ccccn2)nc1 [TPEN]	induced the WT-SOD1 aggregation					
C/C=C(/C)C(=O)O[C@H]1C(C)=C2[C@H]([C@@H]1OC(=O)CCCCCCC)[C@@](C)(OC(C)=O)C[C@H](OC(=O)CCC)[C@@]1(O)[C@H]2OC(=O)[C@@]1(C)O [Thapsigargin]	promoted the WT-SOD1 aggregation					
